The values that follow come from publication PMC11508362, “Discovery of Novel Thiazole-Based SIRT2 Inhibitors as Anticancer Agents: Molecular Modeling, Chemical Synthesis and Biological Assays” (International Journal of Molecular Sciences, 2024).

As usually defined, the IC50 is the concentration needed to halve the response being measured. A word on the inhibition: it is the change of the read-out against control, counted positive when it falls.

Assay [1] deals with acetylation of α-tubulin in SCC13 cells. As to the kind of experiment: Western blot of α-tubulin acetylation (endogenous SIRT2 inhibition) in SCC13 cells. Format: cell-based. To be noted: 5 μM, 48 h, Western blot normalized to total α-tubulin. The protocol:
To confirm that the effect of 5a on cell viability was due to its ability to inhibit the endogenous SIRT2, Western blot analyses were performed to quantify the level of acetylation of α-tubulin, a direct substrate of SIRT2 enzymatic activity.
SCC13 cells (3 × 10^5) were seeded in 60 mm Petri dishes and left to adhere overnight. The day after, the medium was replaced with a medium containing 5a at a final concentration of 5 µM or the respective amount of DMSO vehicle. After 48 h, the medium was removed, and cells were washed with PBS and lysed by scraping with 100 µL of lysis buffer (25 mM Tris-HCl, pH 7.8; 2 mM DTT; 2 mM EDTA, 10% glycerol; 1% Triton® X-100). The lysate was clarified by centrifugation, and the protein concentration was measured using the Bradford assay. Twenty µg of proteins were loaded on a 10% polyacrylamide gel and then transferred to a nitrocellulose membrane. The membrane was saturated with 5% skim milk powder solution in TBS-Tween 0.05%. To determine the acetylation of alpha-tubulin, membranes were incubated with an anti-acetyl-alpha-tubulin antibody (#5335, Cell Signaling Technology, Danvers, MA, USA), whose signal was normalized on the total amount of alpha-tubulin (#2125, Cell Signaling Technology).

Assay [2] concerns the target T1, SIRT2 (Homo sapiens, UniProt Q8IXJ6).
T1 sequence (Q8IXJ6 1-389): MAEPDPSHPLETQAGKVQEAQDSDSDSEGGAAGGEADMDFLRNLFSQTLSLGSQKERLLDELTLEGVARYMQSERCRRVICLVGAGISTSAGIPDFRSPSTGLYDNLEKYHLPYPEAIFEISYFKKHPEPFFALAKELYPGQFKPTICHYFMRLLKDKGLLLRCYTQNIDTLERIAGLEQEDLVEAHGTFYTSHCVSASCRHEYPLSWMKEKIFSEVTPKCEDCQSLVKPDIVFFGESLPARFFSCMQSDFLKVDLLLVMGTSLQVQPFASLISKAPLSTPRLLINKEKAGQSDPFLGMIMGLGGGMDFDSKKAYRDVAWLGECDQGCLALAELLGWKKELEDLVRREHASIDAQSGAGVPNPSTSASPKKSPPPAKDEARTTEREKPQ
The following applies: cited from earlier work.

The target of assay [3] is T2, SIRT1 (Homo sapiens, UniProt Q96EB6).
T2 sequence (Q96EB6 1-747): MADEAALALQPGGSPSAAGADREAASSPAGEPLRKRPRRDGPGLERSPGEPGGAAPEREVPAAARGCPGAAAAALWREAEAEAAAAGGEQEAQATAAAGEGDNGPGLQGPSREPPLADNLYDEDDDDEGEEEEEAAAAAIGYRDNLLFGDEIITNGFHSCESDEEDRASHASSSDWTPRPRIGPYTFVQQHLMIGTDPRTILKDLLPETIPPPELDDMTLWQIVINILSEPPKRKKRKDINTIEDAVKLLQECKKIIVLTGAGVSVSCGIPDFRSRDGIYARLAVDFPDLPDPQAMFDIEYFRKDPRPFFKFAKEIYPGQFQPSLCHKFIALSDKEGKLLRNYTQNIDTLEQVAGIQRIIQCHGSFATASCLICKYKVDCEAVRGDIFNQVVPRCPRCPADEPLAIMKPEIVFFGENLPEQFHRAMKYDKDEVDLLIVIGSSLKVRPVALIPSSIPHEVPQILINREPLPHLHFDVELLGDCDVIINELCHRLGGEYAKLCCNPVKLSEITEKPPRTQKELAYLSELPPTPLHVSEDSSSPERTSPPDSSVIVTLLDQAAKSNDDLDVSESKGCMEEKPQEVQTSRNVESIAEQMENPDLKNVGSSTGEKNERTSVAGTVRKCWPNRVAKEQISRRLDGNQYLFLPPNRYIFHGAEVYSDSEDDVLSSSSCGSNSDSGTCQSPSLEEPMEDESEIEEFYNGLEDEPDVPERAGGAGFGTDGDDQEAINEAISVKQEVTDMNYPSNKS
As to the kind of experiment: SIRT1 deacetylation reaction, recombinant protein. Format: biochemical. To be noted: deacetylase activity, SD always ≤10%. The protocol: (§1) Next, the selectivity of the compounds for SIRT2 against other sirtuins was also determined. The compounds were tested at the final concentration of 150 µM in the deacetylation reaction of SIRT1, SIRT3 and SIRT6, with this last one being promoted by the addition of the SIRT6 activator MDL-800 and also in the depalmitoylation reaction of SIRT6.

Assay [4] has as its target T3, SIRT3 (Homo sapiens, UniProt Q9NTG7).
T3 sequence (Q9NTG7 1-399): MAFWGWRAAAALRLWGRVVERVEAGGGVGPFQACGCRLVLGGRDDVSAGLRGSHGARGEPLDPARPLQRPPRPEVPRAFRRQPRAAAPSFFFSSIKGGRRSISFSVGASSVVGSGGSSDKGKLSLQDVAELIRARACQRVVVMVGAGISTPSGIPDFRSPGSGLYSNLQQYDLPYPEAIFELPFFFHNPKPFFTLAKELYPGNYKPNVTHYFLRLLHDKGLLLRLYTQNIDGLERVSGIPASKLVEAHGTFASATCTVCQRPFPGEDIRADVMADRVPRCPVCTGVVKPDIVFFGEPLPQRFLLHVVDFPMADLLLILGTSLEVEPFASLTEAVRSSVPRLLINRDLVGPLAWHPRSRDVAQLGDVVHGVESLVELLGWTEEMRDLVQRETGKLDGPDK
As to the kind of experiment: SIRT3 deacetylation reaction, recombinant protein. Format: biochemical. The following applies: deacetylase activity, SD always ≤10%. The method, then: as §1

The target of assay [5] is T4, SIRT6 (Homo sapiens, UniProt Q8N6T7). In words: SIRT6 deacetylation reaction promoted by the SIRT6 activator MDL-800, recombinant protein. The following applies: with SIRT6 activator MDL-800, SD always ≤10%; for inhibition at 150 µM: read-out: % Inhibition SIRT6 (Deacetylase); for % Inhibition SIRT6 (Deacetylase): 150 µM. It counts as biochemical. The method, then: as §1
T4 sequence (Q8N6T7 whole entry, species assumed): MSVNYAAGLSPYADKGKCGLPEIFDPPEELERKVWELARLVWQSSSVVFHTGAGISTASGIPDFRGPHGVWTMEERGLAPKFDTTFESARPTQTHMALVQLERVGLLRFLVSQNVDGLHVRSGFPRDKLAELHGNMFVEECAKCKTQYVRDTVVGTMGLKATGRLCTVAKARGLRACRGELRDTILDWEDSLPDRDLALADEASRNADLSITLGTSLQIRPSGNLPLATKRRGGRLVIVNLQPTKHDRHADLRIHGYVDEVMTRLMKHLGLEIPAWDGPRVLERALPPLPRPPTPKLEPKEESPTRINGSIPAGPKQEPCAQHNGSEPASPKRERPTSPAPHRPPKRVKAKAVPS

Assay [6] addresses T4, SIRT6. In words: SIRT6 depalmitoylation reaction (H3K9Palm), recombinant protein. To be noted: 150 µM, SD always ≤10%. Format: biochemical. The method, then:
as §1

The target in assay [7] is T1, SIRT2. As to the kind of experiment: SIRT2 deacetylase activity, recombinant SIRT2 with acetylated peptide H3K9Ac and NAD+. To be noted: for inhibition at 150 µM: read-out: % Inhibition SIRT2 (at 150 μM).
Procedure: The effect of urea derivatives on SIRT2 deacetylase activity was evaluated upon incubation of recombinant SIRT2 with an acetylated peptide (H3K9Ac, a peptide acetylated on Lys 9) and the co-substrate NAD^+.
[8] abbreviates: Table S1, ref [2] Schiedel et al., J. Med. Chem. 2016, read-out: IC50 of SIRT2 inhibition (Table S1).
[9] abbreviates: Table S2, SIRT2 inhibition of SirReal2 analogues, read-out: IC50 (Table S2).
[10] abbreviates: SirReal2 analogs, read-out: SIRT2 IC50.

Read-outs that look alike come from different tables or passages of the source.

On to `N#C/C(=C\c1ccc(-c2cc(Cl)ccc2Cl)o1)C(=O)Nc1cccc2ncccc12` [AGK2, reference compound], for which the “level of α-tubulin acetylation vs control cells” value in assay [1] is “increased levels of alpha-tubulin acetylation”.
With `CC(Br)C(=O)c1ccc(Br)cc1` (centres unmarked) [Compound 1], the half-maximal inhibitory concentration (IC50) is 3.75 µM in assay [2] (read-out: IC50 (Table S2), Table S2, SIRT2 inhibition of SirReal2 analogues) and 3.8 µM in assay [2] (read-out: IC50 of SIRT2 inhibition (Table S1), Table S1, ref [2] Schiedel et al., J. Med. Chem. 2016).
For the compound `Cc1sc(N)nc1-c1ccc(Br)cc1` [Compound 2], the IC50 in assay [2] (setting [8]) was 16.8 µM.
On to `CC(=O)c1cccc(NC(=O)Nc2nc(-c3ccc(Br)cc3)c(C)s2)c1` [Compound 3a, 1-(3-acetylphenyl)-3-(4-(4-bromophenyl)-5-methylthiazol-2-yl)urea], for which the inhibition at 150 µM in assay [3] is 86%; in assay [4], 6%; in assay [5], 42%; in assay [7], 100 ± 5%. Besides, the “% Inhibition SIRT6 (Depalmiotoylase)” value in assay [6] is given as “ni”. Also, the IC50 in assay [7] was 37 ± 2 µM.
Consider `COc1cccc(NC(=O)Nc2nc(-c3ccc(Br)cc3)c(C)s2)c1` [Compound 3b, 1-(4-(4-bromophenyl)-5-methylthiazol-2-yl)-3-(3-methoxyphenyl)urea], for which the inhibition at 150 µM in assay [3] is 98%; in assay [4], 14%; in assay [7] it was 93 ± 4%. The “% Inhibition SIRT6 (Deacetylase)” value in assay [5] is “ni”. Also, in assay [6], the “% Inhibition SIRT6 (Depalmiotoylase)” value is “ni”.
For `CSc1cccc(NC(=O)Nc2nc(-c3ccc(Br)cc3)c(C)s2)c1` [Compound 3c, 1-(4-(4-bromophenyl)-5-methylthiazol-2-yl)-3-(3-(methylthio)phenyl)urea], the inhibition at 150 µM was found to be 100% in assay [3], 20% in assay [4], 7% in assay [5] and 96 ± 6% in assay [7]. Moreover, in assay [6], the “% Inhibition SIRT6 (Depalmiotoylase)” value is “ni”. In addition, in assay [7], the concentration for half-maximal inhibition (IC50) was 26 ± 4 µM.
On to `Cc1sc(NC(=O)NCc2ccccc2)nc1-c1ccc(Br)cc1` [Compound 3d, 1-benzyl-3-(4-(4-bromophenyl)-5-methylthiazol-2-yl)urea], for which the inhibition at 150 µM in assay [3] stood at 99%; in assay [4], 23%; in assay [5], 15%; in assay [7], 100 ± 4%. Further, the “% Inhibition SIRT6 (Depalmiotoylase)” value in assay [6] is “ni”. For the same compound, the IC50 in assay [7] is 108 ± 4 µM.
For the compound `CCOC(=O)c1sc(N)nc1-c1ccc(Br)cc1` [Compound 4], the IC50 in assay [2] (setting [8]) is 3.4 µM.
On to `CCOc1cccc(Cc2cnc(NC(=O)CSc3nc(C)cc(C)n3)s2)c1` [Compound 5], for which the 50% inhibitory concentration (IC50) in assay [2] (setting [8]) is 1.3 µM; in assay [2] (setting [9]) it was 1.33 µM.
With `CCOC(=O)c1sc(NC(=O)NCc2ccccc2)nc1-c1ccc(Br)cc1` [Compound 5d, Ethyl 2-(3-benzylureido)-4-(4-bromophenyl)thiazole-5-carboxylate], the inhibition at 150 µM amounted to 92% in assay [3], 24% in assay [4] and 93 ± 4% in assay [7]. Further, the “% Inhibition SIRT6 (Deacetylase)” value in assay [5] is listed as “ni”. In addition, the “% Inhibition SIRT6 (Depalmiotoylase)” value in assay [6] is on record as “ni”.
In the case of `Cc1cc(C)nc(SCC(=O)Nc2ncc(Cc3ccc(-c4ccccc4)cc3)s2)n1` [Compound 6], the IC50 in assay [2] (setting [8]) was 164 µM.
Consider `O=C(CSc1cccc(O)c1)Nc1ncc(Cc2cccc3ccccc23)s1` [Compound 7], for which the IC50 was 143 to 207 µM in assay [2] (setting [10]) and 143 µM in assay [2] (setting [8]).
As to `Cc1cc(C)cc(SCC(=O)Nc2ncc(Cc3cccc4ccccc34)s2)c1` [Compound 8], the half-maximal inhibitory concentration (IC50) in assay [2] (setting [10]) is 143 to 207 µM; in assay [2] (setting [8]) it was 207 µM.
For `Cc1cc(C)nc(SCC(=O)Nc2ncc(C(=O)Nc3cccc4ccccc34)s2)n1` [Compound 9], the IC50 in assay [2] (setting [8]) was 33 µM.
As to `Cc1cc(C)nc(SCC(=O)Nc2ncc(Cc3cccc4ccc(Cl)cc34)s2)n1` [Compound 10], the IC50 in assay [2] (setting [8]) was 0.2 µM; in assay [2] (setting [9]) it was 0.18 µM.
Turning to `Cc1cc(C)nc(SC(C)C(=O)Nc2ncc(Cc3cccc4ccccc34)s2)n1` (centres unmarked) [Compound 11], the IC50 in assay [2] (setting [8]) is 9.8 µM; in assay [2] (setting [9]), 9.77 µM.
`Cc1cc(C)nc(SC(C)C(=O)Nc2ncc(Cc3cccc4ccccc34)s2)n1` (centres unmarked) [Compound 12]: the IC50 is 0.3 µM in assay [2] (setting [8]) and 0.26 µM in assay [2] (setting [9]).
With `Cc1cc(C)nc(SCC(=O)Nc2ncc(Cc3c(C)ccc4ccccc34)s2)n1` [Compound 13], the IC50 was 0.3 µM in assay [2] (setting [8]) and 0.31 µM in assay [2] (setting [9]).
In the case of `Cc1cc(C)nc(SCC(=O)Nc2ncc(Cc3cccc4ccc(Br)cc34)s2)n1` [Compound 14], the IC50 was 0.21 µM in assay [2] (setting [10]) and 0.2 µM in assay [2] (setting [8]).
`O=C(CSc1ncccn1)Nc1ncc(Cc2cccc3ccccc23)s1` [Compound 16]: the half-maximal inhibitory concentration (IC50) in assay [2] (setting [8]) is 2.3 µM; in assay [2] (setting [9]) it was 2.34 µM.
Regarding `CCc1cc(CC)nc(SCC(=O)Nc2ncc(Cc3cccc4ccccc34)s2)n1` [Compound 17], the IC50 in assay [2] (setting [8]) was 45.6 µM.
Consider `Cc1nc(SCC(=O)Nc2ncc(Cc3cccc4ccccc34)s2)nc(C)c1C` [Compound 18], for which the IC50 in assay [2] (setting [8]) and in assay [2] (setting [9]) was 15 µM each time.
As for `CCCc1cc(O)nc(SCC(=O)Nc2ncc(Cc3cccc4ccccc34)s2)n1` [Compound 20], the IC50 in assay [2] (setting [8]) and in assay [2] (setting [9]) was 127 µM in each case.
As to `Cc1cc(C)nc(SCC(=O)Nc2nnc(C(F)(F)F)s2)n1` [Compound 21], the IC50 in assay [2] (setting [10]) was 503 µM.
For `Cc1cc(C)nc(SCC(=O)Nc2nnc(Cc3ccc(Cl)cc3)s2)n1` [Compound 22], the IC50 in assay [2] (setting [8]) was 30.9 µM.
`Cc1cc(C)nc(SCC(=O)Nc2nnc(Cc3ccc(Br)cc3)s2)n1` [Compound 23]: the IC50 in assay [2] (setting [8]) was 168 µM.
For the compound `Cc1cc(C)nc(SCC(=O)Nc2nnc(Cc3cccc4ccccc34)s2)n1` [Compound 24], the IC50 was 1.9 µM in assay [2] (setting [8]) and 1.89 µM in assay [2] (setting [9]).
With `CCOc1ccc2nc(NC(=O)CSc3nc(C)cc(C)n3)sc2c1` [Compound 25], the IC50 in assay [2] (setting [8]) and in assay [2] (setting [9]) was 207 µM in each case.
